Article PMC5612656, “In vitro and in vivo effects of 2,4 diaminoquinazoline inhibitors of the decapping scavenger enzyme DcpS: Context-specific modulation of SMN transcript levels” (PLoS ONE, 2017)

Tested on: spinal cord transcriptome
Assay: RNA-Seq of spinal cord tissue from 2B/- and 2B/+ mice
Format: in vivo, mouse
[1] = 2B+ spinal cord RNA Seq polyA, WT-RG vs. WT-Veh, adjusted p-value 1.01E-05
[2] = 2B+ spinal cord RNA Seq polyA, WT-RG vs. WT-Veh, adjusted p-value 3.86E-06

Nc1nc(N)c2c(OCC3CCN(Cc4c(Cl)cccc4Cl)CC3)cccc2n1 [RG3039]
log2(fold-change) 4632404H12Rik transcript [1]: 1.233
log2(fold-change) Ifi44 transcript [1]: 3.126
log2(fold-change) Snhg11 transcript [1]: 0.9645
log2(fold-change) Scn10a transcript [2]: -4.931
log2(fold-change) Tmem233 transcript [2]: -5.091
log2(fold-change) 1700024P16Rik (2B-Veh vs 2B-RG3039): -0.9143
log2(fold-change) 2010001M06Rik (2B-Veh vs 2B-RG3039): -0.4589
log2(fold-change) 2810417H13Rik (2B-Veh vs 2B-RG3039): 0.7557
log2(fold-change) 2810459M11Rik (2B-Veh vs 2B-RG3039): 0.8489
log2(fold-change) 6330444E15Rik (2B-Veh vs 2B-RG3039): -1.493
log2(fold-change) 8430408G22Rik (2B-Veh vs 2B-RG3039): -1.92
log2(fold-change) A230028O05Rik (2B-Veh vs 2B-RG3039): -1.123
log2(fold-change) AI429214 (2B-Veh vs 2B-RG3039): -0.7864
log2(fold-change) AW495222 (2B-Veh vs 2B-RG3039): -0.8389
log2(fold-change) Abcc4 (2B-Veh vs 2B-RG3039): -0.4948
log2(fold-change) Acacb (2B-Veh vs 2B-RG3039): -0.9081
log2(fold-change) Acer2 (2B-Veh vs 2B-RG3039): -1.144
log2(fold-change) Ada (2B-Veh vs 2B-RG3039): -2.097
log2(fold-change) Adhfe1 (2B-Veh vs 2B-RG3039): -0.3934
log2(fold-change) Adipor2 (2B-Veh vs 2B-RG3039): -1.046
log2(fold-change) Adm (2B-Veh vs 2B-RG3039): -0.7407
log2(fold-change) Alox12 (2B-Veh vs 2B-RG3039): 1.236
log2(fold-change) Alpl (2B-Veh vs 2B-RG3039): 0.9933
log2(fold-change) Angptl2 (2B-Veh vs 2B-RG3039): 0.7515
log2(fold-change) Angptl4 (2B-Veh vs 2B-RG3039): -1.6266
log2(fold-change) Apln (2B-Veh vs 2B-RG3039): 0.547
log2(fold-change) Aplnr (2B-Veh vs 2B-RG3039): 1.065
log2(fold-change) Arrdc2 (2B-Veh vs 2B-RG3039): -1.418
log2(fold-change) Arrdc3 (2B-Veh vs 2B-RG3039): -0.727
log2(fold-change) Aspm (2B-Veh vs 2B-RG3039): 0.9497
log2(fold-change) Aurkb (2B-Veh vs 2B-RG3039): 0.7105
log2(fold-change) BC049352 (2B-Veh vs 2B-RG3039): -1.185
log2(fold-change) BC064078 (2B-Veh vs 2B-RG3039): -0.6877
log2(fold-change) Barx2 (2B-Veh vs 2B-RG3039): 0.4279
log2(fold-change) Bdh2 (2B-Veh vs 2B-RG3039): -0.7221
log2(fold-change) Bst2 (2B-Veh vs 2B-RG3039): 1.093
log2(fold-change) Btbd16 (2B-Veh vs 2B-RG3039): -0.8478
log2(fold-change) Bub1b (2B-Veh vs 2B-RG3039): 0.7302
log2(fold-change) C130074G19Rik (2B-Veh vs 2B-RG3039): 0.558
log2(fold-change) C330021F23Rik (2B-Veh vs 2B-RG3039): 1.369
log2(fold-change) C430049B03Rik (2B-Veh vs 2B-RG3039): 0.7515
log2(fold-change) Casc5 (2B-Veh vs 2B-RG3039): 0.9628
log2(fold-change) Ccdc150 (2B-Veh vs 2B-RG3039): -0.9419
log2(fold-change) Ccna2 (2B-Veh vs 2B-RG3039): 0.5769
log2(fold-change) Ccnb1 (2B-Veh vs 2B-RG3039): 0.5224
log2(fold-change) Ccnb2 (2B-Veh vs 2B-RG3039): 0.5384
log2(fold-change) Cd101 (2B-Veh vs 2B-RG3039): -0.9911
log2(fold-change) Cd248 (2B-Veh vs 2B-RG3039): 0.749
log2(fold-change) Cdk1 (2B-Veh vs 2B-RG3039): 0.4623
log2(fold-change) Cdkn1a (2B-Veh vs 2B-RG3039): -0.7839
log2(fold-change) Chaf1b (2B-Veh vs 2B-RG3039): 0.7063
log2(fold-change) Chodl (2B-Veh vs 2B-RG3039): 0.3892
log2(fold-change) Col8a1 (2B-Veh vs 2B-RG3039): 0.5045
log2(fold-change) Col12a1 (2B-Veh vs 2B-RG3039): 0.6621
log2(fold-change) Colq (2B-Veh vs 2B-RG3039): -0.452
log2(fold-change) Crispld1 (2B-Veh vs 2B-RG3039): 0.7708
log2(fold-change) Cth (2B-Veh vs 2B-RG3039): -0.9118
log2(fold-change) Cxcl12 (2B-Veh vs 2B-RG3039): 0.9102
log2(fold-change) D630039A03Rik (2B-Veh vs 2B-RG3039): -0.7287
log2(fold-change) Dao (2B-Veh vs 2B-RG3039): -0.6435
log2(fold-change) Dcxr (2B-Veh vs 2B-RG3039): -0.6455
log2(fold-change) Ddit4 (2B-Veh vs 2B-RG3039): -0.977
log2(fold-change) Ddo (2B-Veh vs 2B-RG3039): -0.6951
log2(fold-change) Depdc1b (2B-Veh vs 2B-RG3039): 0.6712
log2(fold-change) Dlgap5 (2B-Veh vs 2B-RG3039): 0.6868
log2(fold-change) Dnah8 (2B-Veh vs 2B-RG3039): 0.7242
log2(fold-change) Dtl (2B-Veh vs 2B-RG3039): 0.8053
log2(fold-change) E230015J15Rik (2B-Veh vs 2B-RG3039): -1.036
log2(fold-change) Edn1 (2B-Veh vs 2B-RG3039): -1.282
log2(fold-change) Ednrb (2B-Veh vs 2B-RG3039): 0.7966
log2(fold-change) Egfl6 (2B-Veh vs 2B-RG3039): 0.8631
log2(fold-change) Elf5 (2B-Veh vs 2B-RG3039): 0.6236
log2(fold-change) Entpd2 (2B-Veh vs 2B-RG3039): 0.5977
log2(fold-change) Espl1 (2B-Veh vs 2B-RG3039): 0.7643
log2(fold-change) Etnppl (2B-Veh vs 2B-RG3039): -2.764
log2(fold-change) Ets1 (2B-Veh vs 2B-RG3039): 0.8775
log2(fold-change) Fabp7 (2B-Veh vs 2B-RG3039): 0.8454
log2(fold-change) Fam64a (2B-Veh vs 2B-RG3039): 0.6855
log2(fold-change) Fam107a (2B-Veh vs 2B-RG3039): -1.657
log2(fold-change) Fam214a (2B-Veh vs 2B-RG3039): -0.4707
log2(fold-change) Fam83d (2B-Veh vs 2B-RG3039): -1.4639
log2(fold-change) Fas (2B-Veh vs 2B-RG3039): -0.8656
log2(fold-change) Fgf21 (2B-Veh vs 2B-RG3039): -1
log2(fold-change) Fgfr4 (2B-Veh vs 2B-RG3039): 1.087
log2(fold-change) Fkbp5 (2B-Veh vs 2B-RG3039): -1.583
log2(fold-change) Fli1 (2B-Veh vs 2B-RG3039): 0.4642
log2(fold-change) Fzd10 (2B-Veh vs 2B-RG3039): 1.186
log2(fold-change) Galnt15 (2B-Veh vs 2B-RG3039): -1.568
log2(fold-change) Gatsl3 (2B-Veh vs 2B-RG3039): -1.006
log2(fold-change) Gkn3 (2B-Veh vs 2B-RG3039): 1.302
log2(fold-change) Glul (2B-Veh vs 2B-RG3039): -0.8158
log2(fold-change) Gm266 (2B-Veh vs 2B-RG3039): 0.9562
log2(fold-change) Gm807 (2B-Veh vs 2B-RG3039): -1.6695
